From patent US20230024096A1, “BIFUNCTIONAL COMPOUNDS FOR THE TREATMENT OF CANCER” (Hoffmann-La Roche Inc., priority 2019, published 2023) come the findings set out here.

The target of the assay is T1, SMARCA2 (Homo sapiens, UniProt P51531).
T1 construct: endogenous in cells; host or cells: HT1080 (CRISPR HiBiT knock-in clone, generated in house)
Briefly: SMARCA2 HiBiT degradation assay (cellular). In kind it is cell-based. The settings on record: table head names A549; for DC50: 6 h incubation, HiBiT-tagged SMARCA2, luminescence read-out, read-out: HiBit A549 SMARCA2 IP (nM) 6 h; for Emax: A549, 6 h incubation, Emax = amount of residual protein remaining in the cell following compound treatment.

One may read the Emax as the size of the effect at its maximum, as opposed to the concentration needed.

T1 sequence (P51531 whole entry): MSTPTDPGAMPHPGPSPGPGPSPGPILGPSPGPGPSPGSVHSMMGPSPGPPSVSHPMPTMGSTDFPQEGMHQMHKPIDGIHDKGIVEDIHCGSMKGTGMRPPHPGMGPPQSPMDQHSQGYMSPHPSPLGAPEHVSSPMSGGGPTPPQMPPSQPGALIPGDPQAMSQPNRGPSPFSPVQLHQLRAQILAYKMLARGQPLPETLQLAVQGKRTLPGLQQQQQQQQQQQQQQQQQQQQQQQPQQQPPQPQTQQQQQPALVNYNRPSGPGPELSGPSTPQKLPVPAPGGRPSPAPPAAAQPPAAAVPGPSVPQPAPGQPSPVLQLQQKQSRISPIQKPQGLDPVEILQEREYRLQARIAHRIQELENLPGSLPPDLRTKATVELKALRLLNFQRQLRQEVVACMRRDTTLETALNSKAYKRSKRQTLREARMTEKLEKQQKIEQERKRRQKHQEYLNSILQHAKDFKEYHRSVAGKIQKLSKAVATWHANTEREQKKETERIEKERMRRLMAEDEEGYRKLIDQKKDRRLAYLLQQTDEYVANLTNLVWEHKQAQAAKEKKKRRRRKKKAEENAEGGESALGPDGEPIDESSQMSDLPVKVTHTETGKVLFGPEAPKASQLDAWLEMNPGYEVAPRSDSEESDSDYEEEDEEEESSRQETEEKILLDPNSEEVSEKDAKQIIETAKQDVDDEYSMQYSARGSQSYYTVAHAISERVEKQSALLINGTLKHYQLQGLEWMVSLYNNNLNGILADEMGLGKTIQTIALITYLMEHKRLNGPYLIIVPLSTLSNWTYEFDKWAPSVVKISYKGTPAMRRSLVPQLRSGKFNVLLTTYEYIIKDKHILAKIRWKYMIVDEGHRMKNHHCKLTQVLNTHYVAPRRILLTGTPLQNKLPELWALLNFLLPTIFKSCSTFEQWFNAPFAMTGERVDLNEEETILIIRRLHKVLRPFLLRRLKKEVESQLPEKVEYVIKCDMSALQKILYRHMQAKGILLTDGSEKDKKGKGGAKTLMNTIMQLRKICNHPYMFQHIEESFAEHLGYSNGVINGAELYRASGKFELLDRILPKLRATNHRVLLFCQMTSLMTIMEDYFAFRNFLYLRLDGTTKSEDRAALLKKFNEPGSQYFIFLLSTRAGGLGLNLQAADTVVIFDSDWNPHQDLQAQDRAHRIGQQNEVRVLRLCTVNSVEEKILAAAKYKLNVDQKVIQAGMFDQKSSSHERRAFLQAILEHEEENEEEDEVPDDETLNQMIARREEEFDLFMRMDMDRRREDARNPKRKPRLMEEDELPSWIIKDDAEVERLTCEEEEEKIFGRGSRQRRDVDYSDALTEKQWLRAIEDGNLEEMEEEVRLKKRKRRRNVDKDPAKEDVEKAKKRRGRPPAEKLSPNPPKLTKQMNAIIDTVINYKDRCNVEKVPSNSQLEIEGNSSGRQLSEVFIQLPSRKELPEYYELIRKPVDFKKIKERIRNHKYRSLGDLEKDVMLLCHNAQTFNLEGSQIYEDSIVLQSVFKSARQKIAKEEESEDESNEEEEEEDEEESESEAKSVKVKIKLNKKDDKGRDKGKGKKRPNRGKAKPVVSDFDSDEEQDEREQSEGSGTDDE

Consider `Nc1nnc(-c2ccccc2O)cc1N1CC2CCC(C1)N2c1cccc(CN2CCC(C(=O)N3CCC(Oc4ccc5c(c4)C(=O)N(C4CCC(=O)NC4=O)C5=O)CC3)CC2)c1` (racemic) [Example 96, rac-5-[[1-[1-[[3-[3-[3-amino-6-(2-hydroxyphenyl)pyridazin-4-yl]-3,8-diazabicyclo[3.2.1]octan-8-yl]phenyl]methyl]piperidine-4-carbonyl]-4-piperidyl]oxy]-2-(2,6-dioxo-3-piperidyl)isoindoline-1,3-dione], for which the DC50 worked out at 7 nM and the Emax was 27%.

Regarding `Nc1nnc(-c2ccccc2O)cc1N1CC2CCC(C1)N2c1cccc(CN2CCC(C(=O)N3CCN(c4ccc(OC5CCC(=O)NC5=O)cc4)CC3)CC2)c1` (racemic) [Example 94, rac-3-[4-[4-[1-[[3-[3-[3-amino-6-(2-hydroxyphenyl)pyridazin-4-yl]-3,8-diazabicyclo[3.2.1]octan-8-yl]phenyl]methyl]piperidine-4-carbonyl]piperazin-1-yl]phenoxy]piperidine-2,6-dione], the DC50 was determined as 18 nM and the Emax was 48%.

As to `Nc1nnc(-c2ccccc2O)cc1N1CC2CCC(C1)N2c1ccccc1OCCN1CCN(c2ccc3c(c2)C(=O)N(C2CCC(=O)NC2=O)C3=O)CC1` (racemic) [Example 144, rac-5-[4-[2-[2-[3-[3-amino-6-(2-hydroxyphenyl)pyridazin-4-yl]-3,8-diazabicyclo[3.2.1]octan-8-yl]phenoxy]ethyl]piperazin-1-yl]-2-(2,6-dioxo-3-piperidyl)isoindoline-1,3-dione], the DC50 was 797 nM and the Emax is 75%.

For `Nc1nnc(-c2ccccc2O)cc1N1CC2CCC(C1)N2c1cccc(CN2CCN(CCOC3CCN(c4ccc5c(c4)C(=O)N(C4CCC(=O)NC4=O)C5=O)CC3)CC2)c1` (racemic) [Example 55, rac-5-[4-[2-[4-[[3-[3-[3-amino-6-(2-hydroxyphenyl)pyridazin-4-yl]-3,8-diazabicyclo[3.2.1]octan-8-yl]phenyl]methyl]piperazin-1-yl]ethoxy]-1-piperidyl]-2-(2,6-dioxo-3-piperidyl)isoindoline-1,3-dione], the DC50 was determined as 19 nM and the Emax amounted to 35%.

On to `Nc1nnc(-c2ccccc2O)cc1N1CCC(NC(=O)CCCN2CCC(c3ccc(OC4CCC(=O)NC4=O)cc3)CC2)(c2ccccc2)CC1` (stereo not drawn) [Example 151, N-[1-[3-amino-6-(2-hydroxyphenyl)pyridazin-4-yl]-4-phenyl-4-piperidyl]-4-[4-[4-[(2,6-dioxo-3-piperidyl)oxy]phenyl]-1-piperidyl]butanamide], for which the DC50 was determined as 855 nM and the Emax stood at 54%.

For the compound `CC(C)(Nc1cccc2c1C(=O)N(C1CCC(=O)NC1=O)C2=O)c1cn(CCCCCCCCCN2CCN(c3ccc(N4CCCC(Oc5cc(-c6ccccc6O)nnc5N)C4)cc3)CC2)nn1` (stereo not drawn) [Example 88, 4-[[1-[1-[9-[4-[4-[3-[3-amino-6-(2-hydroxyphenyl)pyridazin-4-yl]oxy-1-piperidyl]phenyl]piperazin-1-yl]nonyl]triazol-4-yl]-1-methyl-ethyl]amino]-2-(2,6-dioxo-3-piperidyl)isoindoline-1,3-dione], the DC50 worked out at 55 nM and the Emax came out at 37%.

For `Nc1nnc(-c2ccccc2O)cc1OC1CCCN(c2ccc(N3CCN(CCCCCCCCCn4cc(CCCNc5cccc6c5C(=O)N(C5CCC(=O)NC5=O)C6=O)nn4)CC3)cc2)C1` (stereo not drawn) [Example 109, 4-[3-[1-[9-[4-[4-[3-[3-amino-6-(2-hydroxyphenyl)pyridazin-4-yl]oxy-1-piperidyl]phenyl]piperazin-1-yl]nonyl]triazol-4-yl]propylamino]-2-(2,6-dioxo-3-piperidyl)isoindoline-1,3-dione], the DC50 was found to be 103 nM and the Emax was found to be 29%.

Take `Nc1nnc(-c2ccccc2O)cc1N1CC2CCC(C1)N2c1cccc(OCCN2CCN(C(=O)N3C[C@@H]4CN(c5ccc6c(c5)C(=O)N(C5CCC(=O)NC5=O)C6=O)C[C@@H]4C3)CC2)c1` (relative stereo) [Example 157, rac-2-(2,6-dioxo-3-piperidyl)-5-[rel-(3aS,6aR)-5-[4-[2-[3-[3-[3-amino-6-(2-hydroxyphenyl)pyridazin-4-yl]-3,8-diazabicyclo[3.2.1]octan-8-yl]phenoxy]ethyl]piperazine-1-carbonyl]-1,3,3a,4,6,6a-hexahydropyrrolo[3,4-c]pyrrol-2-yl]isoindoline-1,3-dione]: the DC50 stood at 108 nM and the Emax is 68%.

Turning to `Nc1nnc(-c2ccccc2O)cc1O[C@H]1CCCN(c2ccc(N3CCN(CCCCC(=O)N4CCC(Cn5cc(COc6cccc7c6C(=O)N(C6CCC(=O)NC6=O)C7=O)nn5)CC4)CC3)cc2)C1` (mixture of isomers) [Example 135, 2-(2,6-dioxo-3-piperidyl)-4-[[1-[[1-[5-[4-[4-[rac-(3S)-3-[3-amino-6-(2-hydroxyphenyl)pyridazin-4-yl]oxy-1-piperidyl]phenyl]piperazin-1-yl]pentanoyl]-4-piperidyl]methyl]triazol-4-yl]methoxy]isoindoline-1,3-dione], the DC50 came to 382 nM and the Emax came to 35%.

As to `Nc1nnc(-c2ccccc2O)cc1N1CC(Oc2cccc(CN3CCN(C(=O)CCCCCCCCCNc4cccc5c4C(=O)N(C4CCC(=O)NC4=O)C5=O)CC3)c2)C1` (stereo not drawn) [Example 32, 4-[[10-[4-[[3-[1-[3-amino-6-(2-hydroxyphenyl)pyridazin-4-yl]azetidin-3-yl]oxyphenyl]methyl]piperazin-1-yl]-10-oxo-decyl]amino]-2-(2,6-dioxo-3-piperidyl)isoindoline-1,3-dione], the DC50 is 281 nM and the maximum response (Emax) was 62%.

`Nc1nnc(-c2ccccc2O)cc1N1CCC(C(=O)N2CC3(CN(C(=O)CC4CCN(c5ccc6c(c5)C(=O)N(C5CCC(=O)NC5=O)C6=O)CC4)C3)C2)(c2ccccc2)CC1` (stereo not drawn) [Example 122, 5-(4-(2-(6-(1-(3-amino-6-(2-hydroxyphenyl)pyridazin-4-yl)-4-phenylpiperidine-4-carbonyl)-2,6-diazaspiro[3.3]heptan-2-yl)-2-oxoethyl)piperidin-1-yl)-2-(2,6-dioxopiperidin-3-yl)isoindoline-1,3-dione]: the DC50 was 70 nM and the Emax was 29%.

Turning to `Nc1nnc(-c2ccccc2O)cc1N1CCC(C(=O)N2CCC3(CC2)CN(C(=O)CCCN2CCC(c4ccc(OC5CCC(=O)NC5=O)cc4)CC2)CCO3)(c2ccccc2)CC1` (stereo not drawn) [Example 181, 3-(4-(1-(4-(9-(1-(3-amino-6-(2-hydroxyphenyl)pyridazin-4-yl)-4-phenylpiperidine-4-carbonyl)-1-oxa-4,9-diazaspiro[5.5]undecan-4-yl)-4-oxobutyl)piperidin-4-yl)phenoxy)piperidine-2,6-dione], the DC50 is 99 nM and the Emax was 56%.

For the compound `Nc1nnc(-c2ccccc2O)cc1OC1CCCN(c2ccc(OCCN3CCN(C(=O)CCCCCCCCn4cc(CNc5cccc6c5C(=O)N(C5CCC(=O)NC5=O)C6=O)nn4)CC3)cc2)C1` (stereo not drawn) [Example 27, 4-[[1-[9-[4-[2-[4-[3-[3-amino-6-(2-hydroxyphenyl)pyridazin-4-yl]oxy-1-piperidyl]phenoxy]ethyl]piperazin-1-yl]-9-oxo-nonyl]triazol-4-yl]methylamino]-2-(2,6-dioxo-3-piperidyl)isoindoline-1,3-dione], the DC50 was 333 nM and the Emax stood at 57%.

`Nc1nnc(-c2ccccc2O)cc1N1CC2CCC(C1)N2c1cccc(CN2CCN(C(=O)C3CCN(c4ccc5c(c4)C(=O)N(C4CCC(=O)NC4=O)C5=O)CC3)CC2)n1` (racemic) [Example 131, rac-5-[4-[4-[[6-[3-[3-amino-6-(2-hydroxyphenyl)pyridazin-4-yl]-3,8-diazabicyclo[3.2.1]octan-8-yl]-2-pyridyl]methyl]piperazine-1-carbonyl]-1-piperidyl]-2-(2,6-dioxo-3-piperidyl)isoindoline-1,3-dione]: the DC50 turned out to be 27 nM and the Emax was 32%.

For the compound `Nc1nnc(-c2ccccc2O)cc1N1CC2CCC(C1)N2c1cc(F)cc(CN2CCN(C(=O)C3CCN(c4ccc5c(c4)C(=O)N(C4CCC(=O)NC4=O)C5=O)CC3)CC2)c1` (racemic) [Example 193, rac-5-[4-[4-[[3-[3-[3-Amino-6-(2-hydroxyphenyl)pyridazin-4-yl]-3,8-diazabicyclo[3.2.1]octan-8-yl]-5-fluoro-phenyl]methyl]piperazine-1-carbonyl]-1-piperidyl]-2-(2,6-dioxo-3-piperidyl)isoindoline-1,3-dione], the DC50 is 51 nM and the Emax worked out at 25%.

For the compound `Nc1nnc(-c2ccccc2O)cc1OCC(CNC(=O)C1CCN(c2ccc3c(c2)C(=O)N(C2CCC(=O)NC2=O)C3=O)CC1)c1ccccc1` (racemic) [Example 97, N-[3-[3-amino-6-(2-hydroxyphenyl)pyridazin-4-yl]oxy-2-phenyl-propyl]-1-[2-(2,6-dioxo-3-piperidyl)-1,3-dioxo-isoindolin-5-yl]piperidine-4-carboxamide (racemic mixture of diastereomers)], the DC50 was found to be 659 nM and the Emax turned out to be 30%.

For the compound `Nc1nnc(-c2ccccc2O)cc1N1CC2CCC(C1)N2c1cccc(OCCN2CCN(C(=O)N3CCC(Oc4cccc5c4C(=O)N(C4CCC(=O)NC4=O)C5=O)CC3)CC2)c1` (racemic) [Example 41, rac-4-[[1-[4-[2-[3-[3-[3-amino-6-(2-hydroxyphenyl)pyridazin-4-yl]-3,8-diazabicyclo[3.2.1]octan-8-yl]phenoxy]ethyl]piperazine-1-carbonyl]-4-piperidyl]oxy]-2-(2,6-dioxo-3-piperidyl)isoindoline-1,3-dione], the DC50 stood at 46 nM and the Emax turned out to be 48%.

Turning to `CCC(Nc1cccc2c1C(=O)N(C1CCC(=O)NC1=O)C2=O)c1cn(CCCCCCCCCN2CCN(c3ccc(N4CCC[C@H](Oc5cc(-c6ccccc6O)nnc5N)C4)cc3)CC2)nn1` (mixture of isomers) [Example 203, 2-(2,6-dioxo-3-piperidyl)-4-[1-[1-[9-[4-[4-[rac-(3S)-3-[3-amino-6-(2-hydroxyphenyl)pyridazin-4-yl]oxy-1-piperidyl]phenyl]piperazin-1-yl]nonyl]triazol-4-yl]propylamino]isoindoline-1,3-dione], the DC50 came to 216 nM and the Emax was found to be 28%.
